What was measured:
[1] = tested on: 769P; experiment: MTT growth inhibition, 769P; format: cell-based, human; settings: Homo sapiens, 769P cells, 72 hrs
Protocol: (§1) The growth inhibitory effects of avicin D and oxetane derivative were measured using the MTT [3-(4,5-dimethylthiazol-2-yl)-2,5-diphenyl tetrazolium bromide] reduction assay as described in Haridas et al. (2001). Cells were cultured with varying concentrations of avicin D or oxetane in 96-well plates for 72 hrs at 37° C. At the end of 72 hrs, cells were stained with MTT for 2 hrs and then incubated with lysis buffer (20% SDS in 50% N,N-dimethylformamide) for another 6 hrs. Optical density at 570 nm was used as a measure of cell viability.
(§2) The cell lines 769P, A498, CAKI-1, and CAKI-2 are derived from primary human renal-cell cancers (RCC). A549 is a human lung adenocarcinoma epithelial cell line. B16F10 is a mouse melanoma cell line. BT474, BT 474 M1, BT549, MCF7, […], and ZR751 are breast cancer cell lines. CCRF-CEM, Jurkat, and MOLT4 are leukemia cell lines. HELA is cell line derived from cervical caner. HepG2 is a human hepatocellular liver carcinoma cell line. JeKo-1 is a mantle cell lymphoma (MCL) cell line. LnCAP is a cell line was established from a metastatic lesion of human prostatic adenocarcinoma. MM.1 and RPMI-8226 are human multiple myeloma cell lines. OVCAR3 and SKOV3 are ovarian cancer cell lines. Panc-1 is a pancreatic cancer cell line. PC3 is a prostate cancer cell line. Raji is a Burkitt's lymphoma cell line. RL is a non-Hodgkin's lymphoma cell line. […]

[2] = tested on: A498; experiment: MTT growth inhibition, A498; format: cell-based, human; settings: Homo sapiens, A498 cells, 72 hrs
Protocol: as §1, §2

[3] = tested on: A549; experiment: MTT growth inhibition, A549; format: cell-based, human; settings: Homo sapiens, A549 cells, 72 hrs
Protocol: as §1, §2

[4] = tested on: B16F10; experiment: MTT growth inhibition, B16F10; format: cell-based, mouse; settings: Mus musculus, B16-F10, B16F10 cells, 72 hrs
Protocol: as §1, §2

[5] = tested on: BT474; experiment: MTT growth inhibition, BT474; format: cell-based; settings: Homo sapiens, BT-474, BT474 cells, 72 hrs
Protocol: as §1, §2

[6] = tested on: BT474 M1; experiment: MTT growth inhibition, BT474 M1; format: cell-based; settings: Homo sapiens, BT474M1, BT474 M1 cells, 72 hrs
Protocol: as §1, §2

[7] = tested on: BT549; experiment: MTT growth inhibition, BT549; format: cell-based; settings: Homo sapiens, BT-549, BT549 cells, 72 hrs
Protocol: as §1, §2

[8] = tested on: CAKI-1; experiment: MTT growth inhibition, CAKI-1; format: cell-based, human; settings: Homo sapiens, CAKI-1 cells, 72 hrs
Protocol: as §1, §2

[9] = tested on: CAKI-2; experiment: MTT growth inhibition, CAKI-2; format: cell-based, human; settings: Homo sapiens, CAKI-2 cells, 72 hrs
Protocol: as §1, §2

[10] = tested on: CCRF-CEM; experiment: MTT growth inhibition, CCRF-CEM; format: cell-based; settings: Homo sapiens, CCRF-CEM cells, 72 hrs
Protocol: as §1, §2

[11] = tested on: Hela; experiment: MTT growth inhibition, Hela; format: cell-based; settings: Homo sapiens, Hela cells, 72 hrs
Protocol: as §1, §2

[12] = tested on: HepG2; experiment: MTT growth inhibition, HepG2; format: cell-based, human; settings: Homo sapiens, HepG2 cells, 72 hrs
Protocol: as §1, §2

[13] = tested on: JEKO-1; experiment: MTT growth inhibition, JEKO-1; format: cell-based; settings: Homo sapiens, JEKO-1 cells, 72 hrs
Protocol: as §1, §2

[14] = tested on: Jurkat; experiment: MTT growth inhibition, Jurkat; format: cell-based, human; settings: Homo sapiens, Jurkat cells, 72 hrs (Table 5)
Protocol: as §1, §2

[15] = tested on: LnCAP; experiment: MTT growth inhibition, LnCAP; format: cell-based, human; settings: Homo sapiens, LnCAP cells, 72 hrs
Protocol: as §1, §2

[16] = tested on: MCF7; experiment: MTT growth inhibition, MCF7; format: cell-based; settings: Homo sapiens, MCF7 cells, 72 hrs
Protocol: as §1, §2

[17] = tested on: MINO; experiment: MTT growth inhibition, MINO; format: cell-based; settings: Homo sapiens, MINO cells, 72 hrs
Protocol: as §1, §2

[18] = tested on: MM1; experiment: MTT growth inhibition, MM1; format: cell-based, human; settings: Homo sapiens, MM1 cells, 72 hrs
Protocol: as §1, §2

[19] = tested on: MOLT4; experiment: MTT growth inhibition, MOLT4; format: cell-based; settings: Homo sapiens, MOLT-4, MOLT4 cells, 72 hrs
Protocol: as §1, §2

[20] = tested on: OVCAR3; experiment: MTT growth inhibition, OVCAR3; format: cell-based; settings: Homo sapiens, OVCAR-3, OVCAR3 cells, 72 hrs
Protocol: as §1, §2

[21] = tested on: Panc-1; experiment: MTT growth inhibition, Panc-1; format: cell-based; settings: Homo sapiens, Panc-1 cells, 72 hrs
Protocol: as §1, §2

[22] = tested on: PC3; experiment: MTT growth inhibition, PC3; format: cell-based; settings: Homo sapiens, PC-3, PC3 cells, 72 hrs
Protocol: as §1, §2

[23] = tested on: Raji; experiment: MTT growth inhibition, Raji; format: cell-based; settings: Homo sapiens, Raji cells, 72 hrs
Protocol: as §1, §2

[24] = tested on: RL; experiment: MTT growth inhibition, RL; format: cell-based; settings: Homo sapiens, RL cells, 72 hrs
Protocol: as §1, §2

[25] = tested on: RPMI 8226; experiment: MTT growth inhibition, RPMI 8226; format: cell-based, human; settings: Homo sapiens, RPMI 8226 cells, 72 hrs
Protocol: as §1, §2

[26] = tested on: SKOV3; experiment: MTT growth inhibition, SKOV3; format: cell-based; settings: Homo sapiens, SK-OV-3, SKOV3 cells, 72 hrs
Protocol: as §1, §2

[27] = tested on: U2OS; experiment: MTT growth inhibition, U2OS; format: cell-based, human; settings: Homo sapiens, U2OS cells, 72 hrs
Protocol: as §1, §2

[28] = tested on: U266; experiment: MTT growth inhibition, U266; format: cell-based; settings: Homo sapiens, U-266, U266 cells, 72 hrs
Protocol: as §1, §2

[29] = tested on: WSU-DLCL2; experiment: MTT growth inhibition, WSU-DLCL2; format: cell-based, human; settings: Homo sapiens, WSUDLCL2, WSU-DLCL2 cells, 72 hrs
Protocol: as §1, §2

[30] = tested on: ZR751; experiment: MTT growth inhibition, ZR751; format: cell-based; settings: Homo sapiens, ZR-75-1, ZR751 cells, 72 hrs
Protocol: as §1, §2

[31] = tested on: 3T3 L1; experiment: MTT growth inhibition, 3T3 L1; format: cell-based; settings: Mus musculus, 3T3 L1 fibroblast cells, 72 hrs
Protocol: as §1, §2

[32] = tested on: GM0131; experiment: MTT growth inhibition, GM0131; format: cell-based; settings: GM0131 wild type human fibroblast cells, 72 hrs
Protocol: as §1, §2

[33] = tested on: HEK293; experiment: MTT growth inhibition, HEK293; format: cell-based, human; settings: Homo sapiens, HEK293 cells, 72 hrs
Protocol: as §1, §2

[34] = tested on: HS27; experiment: MTT growth inhibition, HS27; format: cell-based; settings: HS27 human foreskin fibroblast cells, 72 hrs
Protocol: as §1, §2

[35] = tested on: Nrf2; experiment: Nrf2 activation, ARE-driven luciferase in Hep G2 cells; format: cell-based, human; settings: Hep G2 cells transfected with hARE-luc, luciferase activity
Protocol: Activation of Nrf2 was assessed by measuring the antioxidant response element (ARE)-mediated gene expression as described previously by Haridas et al., 2004, which is incorporated herein by reference. Briefly, ARE is a cis-acting regulatory sequence identified in the promoter region of several genes encoding phase 2 detoxification enzymes, that binds to Nrf2. Hep G2 (human hepatocarcinoma) cells were transfected with a human ARE-driven luciferase (luc) containing plasmid, hARE-luc. Following exposure to avicin D/compound 8, the luciferase activity induced in these cells was measured using a dual-luciferase assay kit (Promega) according to the manufacturer's protocol.

[36] = tested on: Jurkat (human T-cell leukemia) cells; experiment: Reduction in cell viability, Jurkat cells (Table 6); format: cell-based; settings: Homo sapiens, 50% reduction in cell viability
Description: The IC50 values indicate the concentrations of avicin D/compound 8 required to induce a 50% reduction in call viability. These studies were done in Jurkat (human T-cell leukemia) cells and have been described previously in Haridas et al., 2001, which is incorporated herein by reference.

C=CC(C)(O)CCC1OCC1C(=O)O[C@@H]1C(C)O[C@@H](O[C@](C)(C=C)CC/C=C(\CO)C(=O)O[C@H]2C[C@@]3(C(=O)O[C@@H]4OC(CO)[C@@H](O)C(O)C4O[C@@H]4OC(C)[C@H](O[C@@H]5O[C@@H](CO)[C@H](O)[C@@H]5O)C(O[C@@H]5OC(CO)[C@@H](O)C(O)C5O)C4O)C(CC2(C)C)C2=CCC4[C@@]5(C)CC[C@H](O[C@@H]6OC(CO[C@@H]7OC(C)[C@H](O)C(O)C7O[C@@H]7OC[C@@H](O)C(O)C7O)[C@@H](O)C(O)C6NC(C)=O)C(C)(C)C5CC[C@@]4(C)[C@]2(C)C[C@H]3O)C(O)C1O (stereo partly drawn) [Compound 8]
IC50 [1]: 150 nM
IC50 [2]: 220 nM
IC50 [3]: 1200 nM
IC50 [4]: 140 nM
IC50 [5]: 900 nM
IC50 [6]: 700 nM
IC50 [7]: 1400 nM
IC50 [8]: 280 nM
IC50 [9]: 490 nM
IC50 [10]: 630 nM
IC50 [11]: 1870 nM
IC50 [12]: 310 nM
IC50 [13]: 160 nM
IC50 [14]: 90 nM
IC50 [15]: 190 nM
IC50 [16]: 2600 nM
IC50 [17]: 60 nM
IC50 [18]: 30 nM
IC50 [19]: 200 nM
IC50 [20]: 210 nM
IC50 [21]: 310 nM
IC50 [22]: 190 nM
IC50 [23]: 620 nM
IC50 [24]: 80 nM
IC50 [25]: 160 nM
IC50 [26]: 420 nM
IC50 [27]: 1200 nM
IC50 [28]: 80 nM
IC50 [29]: 140 nM
IC50 [30]: 340 nM
IC50 [31]: 800 nM
IC50 [32]: 12000 nM
IC50 [33]: 6800 nM
IC50 [34]: 2500 nM
Fold Nrf2 activation [35]: 0.98
IC50 [36]: 40 nM

From patent publication US9175030B2, “Derivatives of avicin D and methods of making and using thereof” (priority 2012, dated 2015)
